{"source": "patent US9428472B2", "about": "“Methods of treating bacterial infections with 1,2-benzisothiazolinone and isoindolinone derivatives” (GEORGETOWN UNIVERSITY, priority 2011, dated 2016)", "key": {"HepG2": {"tested_on": "HepG2", "assay": "In vitro toxicity, neutral red cell viability and MTT assays", "type": "cell-based, human", "method": "(§1) The in vitro toxicity of these compounds was determined by the neutral red (both compounds I-1 and I-2) and MTT (3-(4,5-Dimethylthiazol-2-yl)-2,5-diphenyltetrazolium bromide) assay (compound I-1) in human hepatic cell lines Huh7 and HepG2.\n(§2) The neutral red cell viability assay and the MTT assays were conducted with the active compounds at defined concentrations in human hepatoma cell lines, Huh7 and HepG2, as described by Repetto et al (Repetto G, Peso A. D. & Zurita J. L., Neutral red uptake assay for the estimation of cell viability/cytotoxicity, Nature Protocols 3, 1125-1131 (2008)) and Mosmann et al (Mosmann T., Rapid colorimetric assay for cellular growth and survival: application to proliferation and cytotoxicity assays, Journal of Immunological Methods 65 (1-2): 55-63, (December 1983)) respectively. The cell cytotoxicity (CC-50) concentrations were calculated for the HepG2 cell line."}, "Huh7": {"tested_on": "Huh7", "assay": "In vitro toxicity, neutral red cell viability and MTT assays", "type": "cell-based, human", "method": "as §1, §2"}, "[1]": {"tested_on": "Staphylococcus saprophyticus, Staphylococcus aureus, Micrococcus sp., Enterococcus fecalis and Group A Streptococcus", "assay": "Broth microdilution method, MIC-50 over the tested organisms", "type": "cell-based", "method": "as §1\n96 well plates were used to determine the MIC-50 endpoints for most fastidious organisms. The tested compounds were diluted in RPMI to 50 microgram/ml and 0.1 ml was added to the first well. Two-fold dilutions were made in subsequent wells in RPMI to get a range of concentrations from 0.1-50 μg/ml. The volume of diluted compound in each well was 100 microliter. Bacteria were grown in Mueller-Hinton Broth from a single colony from a fresh plate of the tested organism. The broth was grown overnight to 0.5 McFarland standard (10^8 cells) and further diluted in RPMI to get a final inoculum concentration of 5×10^5 CFU/mL. 15 minutes after the inoculum had been standardized as described above, 5 μl of this suspension was inoculated to each well containing 0.1 ml of the tested compound. This plate was then kept at 35° C. for 16-20 h in an ambient air incubator. […] The concentration of inoculum suspension was confirmed by replating on to agar plates. […] The endpoints of standardized drugs are also determined simultaneously and were compared to those mentioned in CLSI M07-08."}, "[2]": {"tested_on": "Enterococcus fecalis 51299 (VRE)", "assay": "Disc-diffusion method (disc inhibition testing)", "type": "cell-based", "method": "(§3) An inoculum of the tested organism was made from an 18-24 h agar plate and was grown overnight to 0.5 McFarland standard. This suspension was then spread on a fresh Mueller-Hinton plate in the following manner: Optimally, within 15 minutes after adjusting the turbidity of the inoculum suspension, a sterile cotton swab was dipped the suspension. The swab was rotated several times and pressed firmly on the inside wall of the tube to remove excess inoculum. The dried surface of the Mueller-Hinton agar plate was then inoculated by streaking the swab over the entire sterile agar surface. Discs of sterile filter paper were inoculated with standard amounts of compounds (5, 10 and 25 microgram) and were dried before application on to the streaked plate. A control disc with the same DMSO % as the test discs were also applied to the plate. The plates were inverted after 15 minutes and were placed in an incubator set to 35° C. After 16-18 h, the plates were examined. The circular zones of inhibition were evaluated by measuring the diameter of the circular margin with no obvious visible growth. The inhibition diameters of standardized drugs against the tested organism were also determined simultaneously and are compared to those mentioned in CLSI M02-A10."}, "Group A Streptococci": {"tested_on": "Group A Streptococci", "assay": "Disc-diffusion method (disc inhibition testing)", "type": "cell-based", "details": "read-out: Zone diameter", "method": "as §3"}, "[3]": {"tested_on": "Enterococcus fecalis 29212", "assay": "Disc-diffusion method (disc inhibition testing)", "type": "cell-based", "details": "read-out: Zone diameter", "method": "as §3"}, "[4]": {"tested_on": "Staphylococcus aureus 25923", "assay": "Disc-diffusion method (disc inhibition testing)", "type": "cell-based", "details": "read-out: Zone diameter", "method": "as §3"}, "[5]": {"tested_on": "Staphylococcus aureus 43300 (MRSA)", "assay": "Disc-diffusion method (disc inhibition testing)", "type": "cell-based", "method": "as §3"}, "[6]": {"tested_on": "Staphylocccus saprophyticus", "assay": "Disc-diffusion method (disc inhibition testing)", "type": "cell-based", "details": "read-out: Zone diameter", "method": "as §3"}, "Micrococcus sp": {"tested_on": "Micrococcus sp", "assay": "Disc-diffusion method (disc inhibition testing)", "type": "cell-based", "details": "read-out: Zone diameter", "method": "as §3"}, "[7]": {"tested_on": "Staphylococcus aureus 29213", "assay": "Disc-diffusion method (disc inhibition testing)", "type": "cell-based", "details": "read-out: Zone diameter", "method": "as §3"}, "[8]": {"tested_on": "Gram-positive bacterial organisms", "assay": "Screening for antibacterial compounds (disc diffusion method, CSLI M02-A10)", "type": "cell-based", "method": "as §3"}, "Klebsiella oxytoca": {"tested_on": "Klebsiella oxytoca", "assay": "Disc-diffusion method (disc inhibition testing)", "type": "cell-based", "details": "Conc. 10/25/50 μg", "method": "as §3, with “Discs of sterile filter paper were inoculated with standard amounts of compounds (5, 10 and 25 microgram) and were dried before application on to the streaked plate.” left out"}, "Pseudomonas aeroginosa": {"tested_on": "Pseudomonas aeroginosa", "assay": "Disc-diffusion method (disc inhibition testing)", "type": "cell-based", "details": "Conc. 10/25/50 μg", "method": "as §3, with “Discs of sterile filter paper were inoculated with standard amounts of compounds (5, 10 and 25 microgram) and were dried before application on to the streaked plate.” left out"}, "Proteus sp 35651": {"tested_on": "Proteus sp 35651", "assay": "Disc-diffusion method (disc inhibition testing)", "type": "cell-based", "details": "Conc. 10/25/50 μg", "method": "as §3, with “Discs of sterile filter paper were inoculated with standard amounts of compounds (5, 10 and 25 microgram) and were dried before application on to the streaked plate.” left out"}, "Aeromonas sp": {"tested_on": "Aeromonas sp", "assay": "Disc-diffusion method (disc inhibition testing)", "type": "cell-based", "details": "Conc. 10/25/50 μg", "method": "as §3, with “Discs of sterile filter paper were inoculated with standard amounts of compounds (5, 10 and 25 microgram) and were dried before application on to the streaked plate.” left out"}, "Streptococcus pneumoniae": {"tested_on": "Streptococcus pneumoniae", "assay": "Disc-diffusion method (disc inhibition testing)", "type": "cell-based", "details": "Conc. 10/25/50 μg", "method": "as §3, with “Discs of sterile filter paper were inoculated with standard amounts of compounds (5, 10 and 25 microgram) and were dried before application on to the streaked plate.” left out"}, "E. Coli 25922": {"tested_on": "E. Coli 25922", "assay": "Disc-diffusion method (disc inhibition testing)", "type": "cell-based", "details": "Conc. 10/25/50 μg", "method": "as §3, with “Discs of sterile filter paper were inoculated with standard amounts of compounds (5, 10 and 25 microgram) and were dried before application on to the streaked plate.” left out"}, "Klebsiella pnemonia 1705": {"tested_on": "Klebsiella pnemonia 1705", "assay": "Disc-diffusion method (disc inhibition testing)", "type": "cell-based", "details": "Conc. 10/25/50 μg", "method": "as §3, with “Discs of sterile filter paper were inoculated with standard amounts of compounds (5, 10 and 25 microgram) and were dried before application on to the streaked plate.” left out"}, "Shigella sp": {"tested_on": "Shigella sp", "assay": "Disc-diffusion method (disc inhibition testing)", "type": "cell-based", "details": "Conc. 10/25/50 μg", "method": "as §3, with “Discs of sterile filter paper were inoculated with standard amounts of compounds (5, 10 and 25 microgram) and were dried before application on to the streaked plate.” left out"}, "[9]": {"details": "neutral red (I-1, I-2) and MTT (I-1)"}}, "note": "Read-outs that look alike come from different tables or passages of the source.", "data": [{"smiles": "O=C(Cn1sc2ccccc2c1=O)Nc1ccccc1Oc1ccccc1", "note": "[Compound I-2]", "values": [{"measurement": "concentration up to which no toxicity was shown", "setting": "HepG2", "value": "≥ 100", "unit": "microgram/ml"}, {"measurement": "in vitro toxicity", "setting": "HepG2; [9]", "value": "Minimal in vitro toxicity"}, {"measurement": "concentration up to which no toxicity was shown", "setting": "Huh7", "value": "≥ 100", "unit": "microgram/ml"}, {"measurement": "in vitro toxicity", "setting": "Huh7; [9]", "value": "Minimal in vitro toxicity"}, {"measurement": "MIC50", "setting": "[1]; range over the five named organisms, read-out: MIC-50 concentrations", "value": "1 to 15", "unit": "µg/mL"}, {"measurement": "MIC50", "setting": "[1]; range over the tested gram positive pathogens, read-out: MIC-50 values", "value": "1 to 15", "unit": "µg/mL"}, {"measurement": "zone of inhibition at 10 µg/disc", "setting": "[2]; Enterococcus, VRE, Conc. 10 μg, read-out: Zone diameter", "value": 17, "unit": "mm"}, {"measurement": "zone of inhibition at 25 µg/disc", "setting": "[2]; Enterococcus, VRE, Conc. 25 μg, read-out: Zone diameter", "value": 22, "unit": "mm"}, {"measurement": "zone of inhibition at 50 µg/disc", "setting": "[2]; Enterococcus, VRE, Conc. 50 μg, read-out: Zone diameter", "value": 24, "unit": "mm"}, {"measurement": "activity against Enterococcus fecalis ATCC 51299 (VRE)", "setting": "[2]; method not named", "value": "active"}, {"measurement": "zone of inhibition at 10 µg/disc", "setting": "Group A Streptococci; Conc. 10 μg", "value": 20, "unit": "mm"}, {"measurement": "zone of inhibition at 25 µg/disc", "setting": "Group A Streptococci; Conc. 25 μg", "value": 24, "unit": "mm"}, {"measurement": "zone of inhibition at 50 µg/disc", "setting": "Group A Streptococci; Conc. 50 μg", "value": 27, "unit": "mm"}, {"measurement": "zone of inhibition at 10 µg/disc", "setting": "[3]; Conc. 10 μg", "value": 14, "unit": "mm"}, {"measurement": "zone of inhibition at 25 µg/disc", "setting": "[3]; Conc. 25 μg", "value": 16, "unit": "mm"}, {"measurement": "zone of inhibition at 50 µg/disc", "setting": "[3]; Conc. 50 μg", "value": 18, "unit": "mm"}, {"measurement": "zone of inhibition at 10 µg/disc", "setting": "[4]; Conc. 10 μg", "value": 18, "unit": "mm"}, {"measurement": "zone of inhibition at 25 µg/disc", "setting": "[4]; Conc. 25 μg", "value": 21, "unit": "mm"}, {"measurement": "zone of inhibition at 50 µg/disc", "setting": "[4]; Conc. 50 μg", "value": 23, "unit": "mm"}, {"measurement": "zone of inhibition at 10 µg/disc", "setting": "[5]; Staphylococcus aureus, MRSA, Conc. 10 μg, read-out: Zone diameter", "value": 19, "unit": "mm"}, {"measurement": "zone of inhibition at 25 µg/disc", "setting": "[5]; Staphylococcus aureus, MRSA, Conc. 25 μg, read-out: Zone diameter", "value": 19, "unit": "mm"}, {"measurement": "zone of inhibition at 50 µg/disc", "setting": "[5]; Staphylococcus aureus, MRSA, Conc. 50 μg, read-out: Zone diameter", "value": 23, "unit": "mm"}, {"measurement": "activity against Staphylococcus aureus ATCC 43300 (MRSA)", "setting": "[5]; method not named", "value": "active"}, {"measurement": "zone of inhibition at 10 µg/disc", "setting": "[6]; Conc. 10 μg", "value": 22, "unit": "mm"}, {"measurement": "zone of inhibition at 25 µg/disc", "setting": "[6]; Conc. 25 μg", "value": 24, "unit": "mm"}, {"measurement": "zone of inhibition at 50 µg/disc", "setting": "[6]; Conc. 50 μg", "value": 25, "unit": "mm"}, {"measurement": "zone of inhibition at 10 µg/disc", "setting": "Micrococcus sp; Conc. 10 μg", "value": 27, "unit": "mm"}, {"measurement": "zone of inhibition at 25 µg/disc", "setting": "Micrococcus sp; Conc. 25 μg", "value": 28, "unit": "mm"}, {"measurement": "zone of inhibition at 50 µg/disc", "setting": "Micrococcus sp; Conc. 50 μg", "value": 29, "unit": "mm"}, {"measurement": "zone of inhibition at 10 µg/disc", "setting": "[7]; Conc. 10 μg", "value": 16, "unit": "mm"}, {"measurement": "zone of inhibition at 25 µg/disc", "setting": "[7]; Conc. 25 μg", "value": 18, "unit": "mm"}, {"measurement": "zone of inhibition at 50 µg/disc", "setting": "[7]; Conc. 50 μg", "value": 22, "unit": "mm"}, {"measurement": "activity against Staphylococcus saprophyticus, Staphylococcus aureus, Micrococcus sp., Enterococcus fecalis and Group A Streptococcus", "setting": "[8]", "value": "showed activity"}, {"measurement": "antibiotic activity against Gram-positive bacterial organisms", "setting": "[8]; disc diffusion screening", "value": "antibiotic activity"}, {"measurement": "Zone diameter", "setting": "Klebsiella oxytoca", "value": "NOT ACTIVE"}, {"measurement": "Zone diameter", "setting": "Pseudomonas aeroginosa", "value": "NOT ACTIVE"}, {"measurement": "Zone diameter", "setting": "Proteus sp 35651", "value": "NOT ACTIVE"}, {"measurement": "Zone diameter", "setting": "Aeromonas sp", "value": "NOT ACTIVE"}, {"measurement": "Zone diameter", "setting": "Streptococcus pneumoniae", "value": "NOT ACTIVE"}, {"measurement": "Zone diameter", "setting": "E. Coli 25922", "value": "NOT ACTIVE"}, {"measurement": "Zone diameter", "setting": "Klebsiella pnemonia 1705", "value": "NOT ACTIVE"}, {"measurement": "Zone diameter", "setting": "Shigella sp", "value": "NOT ACTIVE"}]}]}
